In series [1] the test system is Puccinia recondita f. sp. tritici. The experiment in a line: Fungicidal activity against Puccinia recondita f. sp. tritici / wheat / leaf disc curative (brown rust). Conditions: foliar, 144 h, wheat leaf segments cv. Kanzler, applied 1 day after inoculation, assessed 6-8 days after application, compared to untreated control. It is filed as in vivo. The procedure:
Leaf disks or leaf segments of various plant species are cut from plants grown in a greenhouse. The cut leaf disks or segments are placed in multiwell plates (24-well format) onto water agar. The leaf disks are sprayed with a test solution before (preventative) or after (curative) inoculation. Compounds to be tested are prepared as DMSO solutions (max. 10 mg/ml) which are diluted to the appropriate concentration with 0.025% Tween20 just before spraying. The inoculated leaf disks or segments are incubated under defined conditions (temperature, relative humidity, light, etc.) according to the respective test system. A single evaluation of disease level is carried out 3 to 14 days after inoculation, depending on the pathosystem. Percent disease control relative to the untreated check leaf disks or segments is then calculated. Wheat leaf segments cv. Kanzler are placed on agar in multiwell plates (24-well format). The leaf segments are inoculated with a spore suspension of the fungus. Plates are stored in darkness at 19° C. and 75% rh. The formulated test compound diluted in water is applied 1 day after inoculation. The leaf segments are incubated at 19° C. and 75% rh under a light regime of 12 h light/12 h darkness in a climate cabinet and the activity of a compound is assessed as percent disease control compared to untreated when an appropriate level of disease damage appears in untreated check leaf segments (6-8 days after application).

Series [2] concerns Glomerella lagenarium (Colletotrichum lagenarium). Kind of series: Fungicidal activity against Glomerella lagenarium (Colletotrichum lagenarium), liquid culture / cucumber / preventative (anthracnose). It counts as cell-based. Conditions: Colletotrichum orbiculare, liquid culture (PDB), growth inhibition measured photometrically 3-4 days after application, compared to untreated control. The procedure:
Mycelia fragments or conidia suspensions of a fungus, prepared either freshly from liquid cultures of the fungus or from cryogenic storage, are directly mixed into nutrient broth. DMSO solutions of the test compound (max. 10 mg/ml) is diluted with 0.025% Tween20 by a factor of 50 and 10 μl of this solution is pipetted into a microtiter plate (96-well format). The nutrient broth containing the fungal spores/mycelia fragments is then added to give an end concentration of the tested compound. The test plates are incubated in the dark at 24° C. and 96% relative humidity. The inhibition of fungal growth is determined photometrically after 2 to 7 days, depending on the pathosystem, and percent antifungal activity relative to the untreated check is calculated. Conidia of the fungus from cryogenic storage are directly mixed into nutrient broth (PDB potato dextrose broth). After placing a (DMSO) solution of test compound into a microtiter plate (96-well format), the nutrient broth containing the fungal spores is added. The test plates are incubated at 24° C. and the inhibition of growth is measured photometrically 3-4 days after application.

Series [3] deals with Puccinia recondita f. sp. tritici. The experiment in a line: Fungicidal activity against Puccinia recondita f. sp. tritici / wheat / leaf disc preventative (brown rust). Conditions: foliar, 168 h, wheat leaf segments cv. Kanzler, inoculated 1 day after application, assessed 7-9 days after application, compared to untreated control. It is filed as in vivo. The procedure:
Leaf disks or leaf segments of various plant species are cut from plants grown in a greenhouse. The cut leaf disks or segments are placed in multiwell plates (24-well format) onto water agar. The leaf disks are sprayed with a test solution before (preventative) or after (curative) inoculation. Compounds to be tested are prepared as DMSO solutions (max. 10 mg/ml) which are diluted to the appropriate concentration with 0.025% Tween20 just before spraying. The inoculated leaf disks or segments are incubated under defined conditions (temperature, relative humidity, light, etc.) according to the respective test system. A single evaluation of disease level is carried out 3 to 14 days after inoculation, depending on the pathosystem. Percent disease control relative to the untreated check leaf disks or segments is then calculated. Wheat leaf segments cv. Kanzler are placed on agar in multiwell plates (24-well format) and sprayed with the formulated test compound diluted in water. The leaf disks are inoculated with a spore suspension of the fungus 1 day after application. The inoculated leaf segments are incubated at 19° C. and 75% rh under a light regime of 12 h light/12 h darkness in a climate cabinet and the activity of a compound is assessed as percent disease control compared to untreated when an appropriate level of disease damage appears in untreated check leaf segments (7-9 days after application).

This passage reports pest or weed control, inhibition of growth and melting point results from patent publication US11083196B2, “Microbiocidal oxadiazole derivatives” (SYNGENTA PARTICIPATIONS AG, priority 2016, dated 2021).

Structures are written as SMILES.

The term pest or weed control denotes the degree to which the test organism was suppressed or injured, in per cent. A high value points to a strong effect. Broadly, the inhibition of growth is the share of the control response that was lost under treatment. Lower therefore signals little suppression. The molecule `CCC(=O)N1CCCC1c1ccc(-c2noc(C(F)(F)F)n2)cc1` (stereo not drawn) [Compound A-37, 1-[2-[4-[5-(trifluoromethyl)-1,2,4-oxadiazol-3-yl]phenyl]pyrrolidin-1-yl]propan-1-one] came in with a pest or weed control at 200 ppm in series [1] of no less than 80%. Moreover, in series [2], the inhibition of growth at 20 ppm was no less than 80%.
One may read the melting point as the temperature of the solid-liquid transition. `Cc1ccccc1C(=O)NC1CSC(c2ccc(-c3noc(C(F)(F)F)n3)c(F)c2)=N1` (stereo not drawn) [Compound A-23, N-[2-[3-fluoro-4-[5-(trifluoromethyl)-1,2,4-oxadiazol-3-yl]phenyl]-4,5-dihydrothiazol-4-yl]-2-methyl-benzamids] came in with a melting point of 144 to 155 °C. The same molecule registered an inhibition of growth at 20 ppm in series [2] of no less than 80%. The same molecule came in with a pest or weed control at 200 ppm in series [3] of no less than 80%.
In turn, `Cl.FC(F)(F)c1nc(-c2ccc(C3CCCN3)cc2)no1` (stereo not drawn) [Compound A-34, 3-(4-pyrrolidin-1-ium-2-ylphenyl)-5-(trifluoromethyl)-1,2,4-oxadiazole; chloride] displayed a melting point of 154.4 to 158.5 °C. The molecule also came in with a pest or weed control at 200 ppm in series [3] of no less than 80%.
`FC(F)(F)c1nc(-c2ccc(-c3ncco3)cc2)no1` [Compound C-3, 3-(4-oxazol-2-ylphenyl)-5-(trifluoromethyl)-1,2,4-oxadiazole] had a melting point of 94 to 97 °C. Further, the pest or weed control at 200 ppm in series [1] was no less than 80%. In series [3], this molecule returned a pest or weed control at 200 ppm of no less than 80%.
Take `CC1=NOC(C)(c2ccc(-c3noc(C(F)(F)F)n3)cc2)C1` (stereo not drawn) [Compound A-13, 3-[4-(3,5-dimethyl-4H-isoxazol-5-yl)phenyl]-5-(trifluoromethyl)-1,2,4-oxadiazole]: the pest or weed control at 200 ppm in series [1] and in series [3] was no less than 80% in each case. For the same molecule, in series [2], the inhibition of growth at 20 ppm was no less than 80%.
With `CON(C)C(=O)N1CCCC1c1ccc(-c2noc(C(F)(F)F)n2)cc1` (stereo not drawn) [Compound A-31, N-methoxy-N-methyl-2-[4-[5-(trifluoromethyl)-1,2,4-oxadiazol-3-yl]phenyl]pyrrolidine-1-carboxamide], the pest or weed control at 200 ppm in series [1] and in series [3] was no less than 80% each time. The same molecule registered an inhibition of growth at 20 ppm in series [2] of no less than 80%.
`CC1(C)CC(=O)NC(c2ccc(-c3noc(C(F)(F)F)n3)cc2)O1` (stereo not drawn) [Compound A-11, 6,6-dimethyl-2-[4-[5-(trifluoromethyl)-1,2,4-oxadiazol-3-yl]phenyl]-1,3-oxazinan-4-one]: the pest or weed control at 200 ppm in series [1] and in series [3] was no less than 80% throughout. Also, the inhibition of growth at 20 ppm in series [2] was no less than 80%.
As for `Cc1csc(-c2ccc(-c3noc(C(F)(F)F)n3)cc2)n1` [Compound C-8, 3-[4-(4-methylthiazol-2-yl)phenyl]-5-(trifluoromethyl)-1,2,4-oxadiazole], the melting point fell in the range of 89 to 90 °C. Besides, in series [1], the pest or weed control at 200 ppm is no less than 80%. This molecule gave an inhibition of growth at 20 ppm in series [2] of no less than 80%.
`O=C(NC1CSC(c2ccc(-c3noc(C(F)(F)F)n3)c(F)c2)=N1)C1CC1` (stereo not drawn) [Compound A-22, N-[2-[3-fluoro-4-[5-(trifluoromethyl)-1,2,4-oxadiazol-3-yl]phenyl]-4,5-dihydrothiazol-4-yl]cyclopropanecarboxamide] had a pest or weed control at 200 ppm in series [1] of no less than 80%. The same molecule displayed an inhibition of growth at 20 ppm in series [2] of no less than 80%.
For the molecule `COCC(=O)N1CCCC1c1ccc(-c2noc(C(F)(F)F)n2)cc1` (stereo not drawn) [Compound A-33, 2-methoxy-1-[2-[4-[5-(trifluoromethyl)-1,2,4-oxadiazol-3-yl]phenyl]pyrrolidin-1-yl]ethanone], the pest or weed control at 200 ppm in series [1] and in series [3] was no less than 80% each time. In addition, the inhibition of growth at 20 ppm in series [2] was no less than 80%.
Consider `Cc1cc(-c2ccc(-c3noc(C(F)(F)F)n3)cc2)on1` [Compound C-11, 3-[4-(3-methylisoxazol-5-yl)phenyl]-5-(trifluoromethyl)-1,2,4-oxadiazole], for which the pest or weed control at 200 ppm in series [1] and in series [3] was no less than 80% each time.
The molecule `COC(=O)C1CC(c2ccc(-c3noc(C(F)(F)F)n3)cc2)=NO1` (stereo not drawn) [Compound A-8, methyl 3-[4-[5-(trifluoromethyl)-1,2,4-oxadiazol-3-yl]phenyl]-4,5-dihydroisoxazole-5-carboxylate] returned an inhibition of growth at 20 ppm in series [2] of no less than 80%. Besides, the pest or weed control at 200 ppm in series [3] was no less than 80%.
As for `CC(C)(C)[S+]([O-])NC1CSC(c2ccc(-c3noc(C(F)(F)F)n3)c(F)c2)=N1` (stereo not drawn) [Compound A-26, N-[2-[3-fluoro-4-[5-(trifluoromethyl)-1,2,4-oxadiazol-3-yl]phenyl]-4,5-dihydro-thiazol-4-yl]-2-methyl-propane-2-sulfinamide], the pest or weed control at 200 ppm in series [1] and in series [3] was no less than 80% throughout. In addition, the inhibition of growth at 20 ppm in series [2] is no less than 80%.
In series [1], `COC(=O)N1CCCC1c1ccc(-c2noc(C(F)(F)F)n2)cc1` (stereo not drawn) [Compound A-32, methyl 2-[4-[5-(trifluoromethyl)-1,2,4-oxadiazol-3-yl]phenyl]pyrrolidine-1-carboxylate] returned a pest or weed control at 200 ppm of no less than 80%. The molecule further came in with an inhibition of growth at 20 ppm in series [2] of no less than 80%.
In the case of `CC(=O)N1CCCC1c1ccc(-c2noc(C(F)(F)F)n2)cc1` (stereo not drawn) [Compound A-38, 1-[2-[4-[5-(trifluoromethyl)-1,2,4-oxadiazol-3-yl]phenyl]pyrrolidin-1-yl]ethanone], the pest or weed control at 200 ppm in series [1] and in series [3] was no less than 80% in each case. In series [2], the inhibition of growth at 20 ppm is no less than 80%.
`Nc1cccc(-c2ccc(-c3noc(C(F)(F)F)n3)cc2)n1` [Compound D-15, 6-[4-[5-(trifluoromethyl)-1,2,4-oxadiazol-3-yl]phenyl]pyridin-2-amine] had a melting point of 135 to 140 °C. Further, the inhibition of growth at 20 ppm in series [2] is no less than 80%. In series [3], this molecule had a pest or weed control at 200 ppm of no less than 80%.
Turning to `FC(F)(F)c1nc(-c2ccc(-c3nc(CCl)cs3)cc2)no1` [Compound C-9, 3-[4-[4-(chloromethyl)thiazol-2-yl]phenyl]-5-(trifluoromethyl)-1,2,4-oxadiazole], the melting point lay within 91 to 92 °C. For the same molecule, in series [2], the inhibition of growth at 20 ppm is no less than 80%. For the same molecule, the pest or weed control at 200 ppm in series [3] was no less than 80%.
`O=C(Nc1cc(-c2ccc(-c3noc(C(F)(F)F)n3)cc2)ccn1)C(F)(F)F` [Compound D-19, 2,2,2-trifluoro-N-[4-[4-[5-(trifluoromethyl)-1,2,4-oxadiazol-3-yl]phenyl]-2-pyridyl]acetamide] came in with a melting point of 230 to 235 °C. For the same molecule, in series [2], the inhibition of growth at 20 ppm was no less than 80%. Also, the pest or weed control at 200 ppm in series [3] is no less than 80%.
`COCC(=O)NC1CSC(c2ccc(-c3noc(C(F)(F)F)n3)c(F)c2)=N1` (stereo not drawn) [Compound A-25, N-[2-[3-fluoro-4-[5-(trifluoromethyl)-1,2,4-oxadiazol-3-yl]phenyl]-4,5-dihydrothiazol-4-yl]-2-methoxy-acetamide] came in with a melting point of 141 to 175 °C. Moreover, the inhibition of growth at 20 ppm in series [2] is no less than 80%. The molecule further registered a pest or weed control at 200 ppm in series [3] of no less than 80%.
Turning to `O=C(N1CCCC1c1ccc(-c2noc(C(F)(F)F)n2)cc1)n1ccnc1` (stereo not drawn) [Compound A-35, imidazol-1-yl-[2-[4-[5-(trifluoromethyl)-1,2,4-oxadiazol-3-yl]phenyl]pyrrolidin-1-yl]methanone], the pest or weed control at 200 ppm in series [1] and in series [3] was no less than 80% each time. Also, the inhibition of growth at 20 ppm in series [2] is no less than 80%.
